From article PMC10606064, “2-Aminothiazole-Flavonoid Hybrid Derivatives Binding to Tau Protein and Responsible for Antitumor Activity in Glioblastoma” (International Journal of Molecular Sciences, 2023)

Tests used:
[1] = test system: U251 glioblastoma cells; assay: MTT cell viability assay, U251; assay type: cell-based; settings: Homo sapiens, U-251, U251, 72 h, mean ± SEM, read-out: IC50 (metabolic activity)
Procedure: (§1) Cells harvested from sub-confluent monolayers were seeded at 15,000 cells per mL in a 96-well microtiter plate (Cambridge Technology, Labège, France) and cultured for 24 h under standard conditions. Standard medium was then replaced by fresh medium containing no drugs or compounds at different concentrations. The surviving cells were quantified after 72 h by the MTT assay, according to the manufacturer’s instructions. Briefly, 20 µL of 3-(4,5-diMethylThiazol-2-yl)-2,5diphenyl Tetrazolium bromide (MTT) solution at 5 mg.mL^−1 was added to cells for 3 h at 37 °C. The supernatant was discarded and replaced by 100 µL of dimethyl sulfoxide to dissolve formazan crystals. The absorbance was then read at 600 nm by spectrophotometry. For all concentrations of a given compound, cell viability was expressed as the percentage of the ratio between the mean absorbance of treated cells and the mean absorbance of untreated cells. Three independent experiments were performed, and the data were expressed as percentage of survival (using the untreated cells as 100%) and subjected to statistical analysis (n = 3). The IC50 was calculated using the Chou and Talalay method.

[2] = test system: SK-N-SH neuroblastoma cells; assay: MTT cell viability assay, SK-N-SH; assay type: cell-based; settings: Homo sapiens, 72 h, mean ± SEM, read-out: IC50 (metabolic activity)
Procedure: as §1

[3] = test system: U87 shCTRL cells; assay: Microtubule network analysis (alpha-tubulin immunofluorescence), U87 shCTRL; assay type: cell-based, human
Procedure: Cells were then fixed in 4% formaldehyde (in PBS pH 7.4) for 20 min at RT, permeabilized with PBS-Triton X-100 0.5% for 10 min at RT. Immunostaining was carried out overnight at 4 °C with a primary anti-citrate synthase antibody (dilution 1:400 in PBS-BSA 3%; SC390693; SantaCruz Biotechnologies, Heidelberg, Germany). The following day, the cells were washed then incubated with anti-mouse secondary antibody (dilution 1:800 in PBS-BSA 3%; A-11029; Invitrogen) and TRITC-phalloidin (dilution 1:2500 in PBS-BSA 3%; P1951; Sigma-Aldrich, Saint-Quentin-Fallavier, France) for 1 h at RT in the dark. For the microtubule network, the same protocol for mitochondria labeling was carried out by replacing with primary anti-α-tubulin antibody (dilution 1:400 in PBS-BSA 1% from a 1 mg/mL solution; monoclonal antibody, clone DM1A, Sigma-Aldrich, Saint-Quentin-Fallavier, France). Next, cells were washed in PBS and cover glasses were mounted with a drop of ProLong® anti-fade solution (Invitrogen). Mitochondria and cytoskeletons were imaged using a confocal laser scanning microscope (CLSM) Leica SP5 with a Leica inverted microscope, equipped with a Plan-Apochromat 63×oil immersion objective (NA = 1.4). Each image was recorded with the CLSM’s spectral mode selecting specific domains of the emission spectrum. The Alexafluor488 and FITC fluorophores were excited at 488 nm with an argon laser, and fluorescence emission was collected between 496 nm and 535 nm. The TRITC fluorophore was excited at 543 nm with a helium–neon laser, and fluorescence was collected between 560 and 620 nm. The public-domain Fiji v1.54f software was used for image analysis.
The analyses of mitochondria and microtubule networks were performed using, respectively, the ‘Mitochondria analyzer’ plugin for Fiji v1.54f software and the method described in our earlier work. Briefly, a series of images were transferred to the software and corrected for background fluorescence intensity contribution. Next, the surface of 50 single cells was measured by considering the cell shape as the boundary of labelling of actin or α-tubulin cytoskeletons (respectively for measurement on mitochondria or microtubules). Then, the mitochondria elongation and mean branch junction per mitochondria parameters, and the surface of the microtubule network, were measured by performing systematically the Otsu method to reduce all gray-level images to binary images. Note that the Otsu plugin in ImageJ is an algorithm which searches for the threshold minimizing the intra-class variance of pixel intensities, defined as a weighted sum of variances of the two classes; the local set is a circular region of interest, and the central pixel is tested against the Otsu threshold found for that region. Moreover, the ratios of microtubules on cell surfaces were calculated as percentages.

[4] = 1.25 µM, 24 h, untreated 39 ± 5%

IC50 [1]	IC50 [2]	SMILES	ratio of microtubule network surface to total cell surface [3, 4]	ratio of microtubule network surface to total cell surface ([3]; 5 µM, 8 h (maximal))	ratio of microtubule network surface to total cell surface ([3]; 20 µM, 24 h, untreated 39 ± 5%)
1700 ± 500 nM	1200 ± 300 nM	Nc1nc2ccc3oc(-c4cccc(Oc5ccccc5)c4)cc(=O)c3c2s1 [Compound 2, 2-amino-7-(3-phenoxyphenyl)-9H-chromeno [6,5-d]thiazol-9-one]	42.2 ± 6.7%	44.1 ± 3.8%	43.2 ± 9.3%
> 100000 nM	> 100000 nM	Nc1nc2ccc3oc(C(=O)O)cc(=O)c3c2s1 [Compound 5]	no effect	no effect on microtubule networks	no effect
